Experimental data reported in US20250145607A1, “Modulators of CAMKK2 as Ligand Directed Degraders” (Celgene Corporation, priority 2021, published 2025).

Biological target: T1, Enhanced ProLabel (ePL)-Tagged CAMKK2 (Homo sapiens, UniProt Q96RR4)
T1 construct: expressed in transfected cells
Test: Degradation of stably expressed ePL-tagged CAMKK2 in 293T cells (InCELL Hunter luminescence, 24 h)
Assay type: cell-based
Details: minimum % protein remaining; ePL-CAMKK2 293T cells, 24 h incubation
Procedure: Cells were dispensed into 384 well plates pre-spotted with serial diluted test compounds. After 24 h incubation, degradation was terminated by the addition of DiscoverX InCELL Hunter Detection reagent.
Assay plates were incubated at 37° C. with 5% CO2 for 24 hours. Plates were kept at room temperature for 30 min, after which 25 μL of the InCELL Hunter Detection Reagent Working Solution was added (catalog number 96-0002, DiscoverX, Fremont, CA). After plates were incubated at room temperature for 30 min, protected from light, luminescence was read on a PHERAstar reader (BMG LABTECH, Cary, N.C.). Data was normalized and fit using Activity Base (IDBS, Alameda, Calif.) as described below.
A Four Parameter Logistic Model (Sigmoidal Dose-Response Model, equation 1) was used to determine the compound's EC50 and degradation Ymin.
where C is CAMKK2 degradation potency EC50, D is the […], A is the lower limit reported as Ymin. Ymin and EC50 were used to characterize compound-mediated CAMKK2 degradation efficiency.

T1 sequence (Q96RR4 whole entry): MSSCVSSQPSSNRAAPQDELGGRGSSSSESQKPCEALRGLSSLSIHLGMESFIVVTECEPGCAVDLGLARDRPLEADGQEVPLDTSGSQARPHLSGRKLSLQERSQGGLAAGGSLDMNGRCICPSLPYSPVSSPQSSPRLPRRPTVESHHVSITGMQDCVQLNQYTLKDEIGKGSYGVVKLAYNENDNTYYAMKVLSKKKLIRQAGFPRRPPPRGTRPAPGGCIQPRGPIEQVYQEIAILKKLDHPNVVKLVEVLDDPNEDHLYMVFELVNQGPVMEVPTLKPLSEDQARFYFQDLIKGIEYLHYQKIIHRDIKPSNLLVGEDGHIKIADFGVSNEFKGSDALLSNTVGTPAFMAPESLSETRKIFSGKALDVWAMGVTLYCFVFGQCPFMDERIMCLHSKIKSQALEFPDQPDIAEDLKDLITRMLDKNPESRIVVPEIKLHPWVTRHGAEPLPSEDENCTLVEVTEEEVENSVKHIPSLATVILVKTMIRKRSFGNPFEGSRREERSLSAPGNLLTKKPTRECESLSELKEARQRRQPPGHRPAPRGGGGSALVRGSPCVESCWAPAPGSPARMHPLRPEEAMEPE

(ePL) HEK293 24 h CAMKK2 Ymin(%) | Structure (SMILES)
43 | Cc1ncsc1-c1ccc(CNC(=O)[C@@H]2C[C@@H](O)CN2C(=O)[C@@H](NC(=O)CCCCCCCCCCCOc2ccc3c(-c4ccc(C(=O)O)c(C5CCCC5)c4)ncnc3c2)C(C)(C)C)cc1 [Compound 1, 2-cyclopentyl-4-[7-[12-[[(1S)-1-[(2S,4R)-4-hydroxy-2-[[4-(4-methylthiazol-5-yl)phenyl]methylcarbamoyl]pyrrolidine-1-carbonyl]-2,2-dimethyl-propyl]amino]-12-oxo-dodecoxy]quinazolin-4-yl]benzoic acid]
37 | Cc1ncsc1-c1ccc(CNC(=O)[C@@H]2C[C@@H](O)CN2C(=O)[C@@H](NC(=O)CCCCCCCCCCOc2ccc3c(-c4ccc(C(=O)O)c(C5CCCC5)c4)ncnc3c2)C(C)(C)C)cc1 (racemic) [Compound 2, 2-cyclopentyl-4-[7-[11-oxo-11-[[rac-(1S)-2,2-dimethyl-1-[rac-(2S,4R)-4-hydroxy-2-[[4-(4-methylthiazol-5-yl)phenyl]methylcarbamoyl]pyrrolidine-1-carbonyl]propyl]amino]undecoxy]quinazolin-4-yl]benzoic acid]
19 | Cc1ncsc1-c1ccc(CNC(=O)[C@@H]2C[C@@H](O)CN2C(=O)[C@@H](NC(=O)CCCCCCCCOc2ccc3c(-c4ccc(C(=O)O)c(C5CCCC5)c4)ncnc3c2)C(C)(C)C)cc1 [Compound 4, 2-cyclopentyl-4-[7-[9-[[(1S)-1-[(2S,4R)-4-hydroxy-2-[[4-(4-methylthiazol-5-yl)phenyl]methylcarbamoyl]pyrrolidine-1-carbonyl]-2,2-dimethyl-propyl]amino]-9-oxo-nonoxy]quinazolin-4-yl]benzoic acid]
32 | Cc1ncsc1-c1ccc(CNC(=O)[C@@H]2C[C@@H](O)CN2C(=O)[C@@H](NC(=O)CCCCCCCOc2ccc3c(-c4ccc(C(=O)O)c(C5CCCC5)c4)ncnc3c2)C(C)(C)C)cc1 [Compound 5]

Structure (SMILES) | (ePL) HEK293 24 h CAMKK2 Ymin(%)
Cc1ncsc1-c1ccc(CNC(=O)[C@@H]2C[C@@H](O)CN2C(=O)[C@@H](NC(=O)CCCCCCOc2ccc3c(-c4ccc(C(=O)O)c(C5CCCC5)c4)ncnc3c2)C(C)(C)C)cc1 (racemic) [Compound 6, 2-cyclopentyl-4-[7-[7-oxo-7-[[rac-(1S)-2,2-dimethyl-1-[rac-(2S,4R)-4-hydroxy-2-[[4-(4-methylthiazol-5-yl)phenyl]methylcarbamoyl]pyrrolidine-1-carbonyl]propyl]amino]heptoxy]quinazolin-4-yl]benzoic acid] | 42
